{"source": "patent US9995734B2", "about": "“Human T cell line assay for evaluating the immunologic identity of glatiramer acetate preparations” (Mylan Inc., priority 2013, dated 2018)", "key": {"Donor 4 COP T-Cell Lines": {"test_system": "Donor 4 COP T-Cell Lines", "assay": "ATP proliferation assay (CellTiter Glo), Donor 4 COP T-cell lines, incl. reactivity to non-canonical GA peptides", "type": "cell-based, human", "conditions": "for Non-Canonical Peptide Non-Reactivity: proliferation <2 times no antigen control; for Proliferation (luminescent ATP assay), Mean: T-cell line 205-1F4, Day 71, autologous B-LCL"}, "Donor 3 GMA T-Cell Lines": {"test_system": "Donor 3 GMA T-Cell Lines", "assay": "ATP proliferation assay (CellTiter Glo), Donor 3 GMA T-cell lines, incl. reactivity to non-canonical GA peptides", "type": "cell-based, human", "conditions": "for proliferation response to non-canonical GA peptides: 0, 1, 3, 10, 30 μg/mL; for Non-Canonical Peptide Non-Reactivity: proliferation <2 times no antigen control; for Non-Canonical Peptide Reactivity: at least one proliferation value >=2 times no antigen control"}}, "note": "Where “and” joins values, the source holds several entries; their conditions need not be identical. Identical values can stand only once."}
{"substance": "poly (Glu-Ala-Tyr; 6:3:1) [GAT 631]", "values": [{"measurement": "Non-Canonical Peptide Non-Reactivity", "setting": "Donor 4 COP T-Cell Lines; 205-1B4", "result": "GAT 631"}, {"measurement": "Non-Canonical Peptide Non-Reactivity", "setting": "Donor 4 COP T-Cell Lines; 205-1C4", "result": "GAT 631"}, {"measurement": "Non-Canonical Peptide Non-Reactivity", "setting": "Donor 4 COP T-Cell Lines; 205-1F4", "result": "GAT 631"}, {"measurement": "Non-Canonical Peptide Non-Reactivity", "setting": "Donor 4 COP T-Cell Lines; 205-1H3", "result": "GAT 631"}, {"measurement": "Non-Canonical Peptide Non-Reactivity", "setting": "Donor 4 COP T-Cell Lines; 205-1H5", "result": "GAT 631"}, {"measurement": "reactivity to non-canonical GA peptides", "setting": "Donor 4 COP T-Cell Lines; 205-1H7, after seven stimulations, 0, 1, 10, 30 μg/mL", "result": "not"}, {"measurement": "Non-Canonical Peptide Non-Reactivity", "setting": "Donor 4 COP T-Cell Lines; 205-1H7", "result": "GAT 631"}, {"measurement": "Non-Canonical Peptide Non-Reactivity", "setting": "Donor 4 COP T-Cell Lines; 205-1H11", "result": "GAT 631"}, {"measurement": "Nonreactive T-Cell Line", "setting": "Donor 4 COP T-Cell Lines; Donor 4 COP lines, stimulation with the non-canonical GA peptide", "result": "205-1C4 (Donor 4) and 205-1F4 (Donor 4) and 205-1H3 (Donor 4) and 205-1H5 (Donor 4) and 205-1H7 (Donor 4) and 205-1H11 (Donor 4)"}, {"measurement": "Reactivity (proliferation), Mean", "setting": "Donor 4 COP T-Cell Lines; T-cell line 205-1B4, 1 μg/mL antigen, No Antigen 830", "result": 843, "unit": "RLU"}, {"measurement": "Reactivity (proliferation), Mean", "setting": "Donor 4 COP T-Cell Lines; T-cell line 205-1B4, 3 μg/mL antigen, No Antigen 830", "result": 890, "unit": "RLU"}, {"measurement": "Reactivity (proliferation), Mean", "setting": "Donor 4 COP T-Cell Lines; T-cell line 205-1B4, 10 μg/mL antigen, No Antigen 830", "result": 845, "unit": "RLU"}, {"measurement": "Reactivity (proliferation), Mean", "setting": "Donor 4 COP T-Cell Lines; T-cell line 205-1B4, 30 μg/mL antigen, No Antigen 830", "result": 766, "unit": "RLU"}, {"measurement": "Reactivity (proliferation), Mean", "setting": "Donor 4 COP T-Cell Lines; T-cell line 205-1C4, 1 μg/mL antigen, No Antigen 4464", "result": 4856, "unit": "RLU"}, {"measurement": "Reactivity (proliferation), Mean", "setting": "Donor 4 COP T-Cell Lines; T-cell line 205-1C4, 3 μg/mL antigen, No Antigen 4464", "result": 5584, "unit": "RLU"}, {"measurement": "Reactivity (proliferation), Mean", "setting": "Donor 4 COP T-Cell Lines; T-cell line 205-1C4, 10 μg/mL antigen, No Antigen 4464", "result": 5666, "unit": "RLU"}, {"measurement": "Reactivity (proliferation), Mean", "setting": "Donor 4 COP T-Cell Lines; T-cell line 205-1C4, 30 μg/mL antigen, No Antigen 4464", "result": 5137, "unit": "RLU"}, {"measurement": "Proliferation (luminescent ATP assay), Mean", "setting": "Donor 4 COP T-Cell Lines; 1 μg/mL antigen", "result": 2424}, {"measurement": "Proliferation (luminescent ATP assay), Mean", "setting": "Donor 4 COP T-Cell Lines; 3 μg/mL antigen", "result": 2439}, {"measurement": "Proliferation (luminescent ATP assay), Mean", "setting": "Donor 4 COP T-Cell Lines; 10 μg/mL antigen", "result": 3035}, {"measurement": "Reactivity (proliferation), Mean", "setting": "Donor 4 COP T-Cell Lines; T-cell line 205-1H5, 1 μg/mL antigen, No Antigen 749", "result": 648, "unit": "RLU"}, {"measurement": "Reactivity (proliferation), Mean", "setting": "Donor 4 COP T-Cell Lines; T-cell line 205-1H5, 3 μg/mL antigen, No Antigen 749", "result": 696, "unit": "RLU"}, {"measurement": "Reactivity (proliferation), Mean", "setting": "Donor 4 COP T-Cell Lines; T-cell line 205-1H5, 10 μg/mL antigen, No Antigen 749", "result": 698, "unit": "RLU"}, {"measurement": "Reactivity (proliferation), Mean", "setting": "Donor 4 COP T-Cell Lines; T-cell line 205-1H5, 30 μg/mL antigen, No Antigen 749", "result": 669, "unit": "RLU"}, {"measurement": "proliferation response to non-canonical GA peptides", "setting": "Donor 3 GMA T-Cell Lines; 165-B5G and 165-E7G, Day 81", "result": "responded"}, {"measurement": "Non-Canonical Peptide Non-Reactivity", "setting": "Donor 3 GMA T-Cell Lines; 165-B5G", "result": "GAT 631"}, {"measurement": "Non-Canonical Peptide Non-Reactivity", "setting": "Donor 3 GMA T-Cell Lines; 165-C5G", "result": "GAT 631"}, {"measurement": "Non-Canonical Peptide Reactivity", "setting": "Donor 3 GMA T-Cell Lines; 165-E7G", "result": "GAT 631"}, {"measurement": "Non-Canonical Peptide Non-Reactivity", "setting": "Donor 3 GMA T-Cell Lines; 165-E9G", "result": "GAT 631"}, {"measurement": "Non-Canonical Peptide Non-Reactivity", "setting": "Donor 3 GMA T-Cell Lines; 165-F5G", "result": "GAT 631"}, {"measurement": "Non-Canonical Peptide Non-Reactivity", "setting": "Donor 3 GMA T-Cell Lines; 165-F10G", "result": "GAT 631"}, {"measurement": "proliferation response to non-canonical GA peptides", "setting": "Donor 3 GMA T-Cell Lines; 165-H11G, Day 50", "result": "responded"}, {"measurement": "Non-Canonical Peptide Reactivity", "setting": "Donor 3 GMA T-Cell Lines; 165-H11G", "result": "GAT 631"}, {"measurement": "Reactive T-Cell Line", "setting": "Donor 3 GMA T-Cell Lines; Donor 3 GMA lines, at least a 50% increase in proliferation relative to a control after stimulation with the non-canonical GA peptide", "result": "165-H11G (Donor 3)"}, {"measurement": "Nonreactive T-Cell Line", "setting": "Donor 3 GMA T-Cell Lines; Donor 3 GMA lines, stimulation with the non-canonical GA peptide", "result": "165-B5G (Donor 3) and 165-C5G (Donor 3) and 165-C8G (Donor 3) and 165-E7G (Donor 3) and 165-E9G (Donor 3) and 165-F5G (Donor 3) and 165-F10G (Donor 3)"}, {"measurement": "Proliferation (luminescent ATP assay), Mean", "setting": "Donor 3 GMA T-Cell Lines; T-cell line 165-05G, 1 μg/mL antigen, Day 50 of culturing, No Antigen Value 2149", "result": 2004, "unit": "RLU"}, {"measurement": "Proliferation (luminescent ATP assay), Mean", "setting": "Donor 3 GMA T-Cell Lines; T-cell line 165-05G, 3 μg/mL antigen, Day 50 of culturing, No Antigen Value 2149", "result": 2207, "unit": "RLU"}, {"measurement": "Proliferation (luminescent ATP assay), Mean", "setting": "Donor 3 GMA T-Cell Lines; T-cell line 165-05G, 10 μg/mL antigen, Day 50 of culturing, No Antigen Value 2149", "result": 1928, "unit": "RLU"}, {"measurement": "Proliferation (luminescent ATP assay), Mean", "setting": "Donor 3 GMA T-Cell Lines; T-cell line 165-05G, 30 μg/mL antigen, Day 50 of culturing, No Antigen Value 2149", "result": 1829, "unit": "RLU"}, {"measurement": "Proliferation (luminescent ATP assay), Mean", "setting": "Donor 3 GMA T-Cell Lines; T-cell line 165-B5G, 1 μg/mL antigen, Day 81 of culturing, No Antigen Value 2432", "result": 4666, "unit": "RLU"}, {"measurement": "Proliferation (luminescent ATP assay), Mean", "setting": "Donor 3 GMA T-Cell Lines; T-cell line 165-B5G, 1.25 μg/mL antigen, Day 55 of culturing, No Antigen Value 846", "result": 1133, "unit": "RLU"}, {"measurement": "Proliferation (luminescent ATP assay), Mean", "setting": "Donor 3 GMA T-Cell Lines; T-cell line 165-B5G, 2.5 μg/mL antigen, Day 55 of culturing, No Antigen Value 846", "result": 1288, "unit": "RLU"}, {"measurement": "Proliferation (luminescent ATP assay), Mean", "setting": "Donor 3 GMA T-Cell Lines; T-cell line 165-B5G, 3 μg/mL antigen, Day 81 of culturing, No Antigen Value 2432", "result": 5536, "unit": "RLU"}, {"measurement": "Proliferation (luminescent ATP assay), Mean", "setting": "Donor 3 GMA T-Cell Lines; T-cell line 165-B5G, 5 μg/mL antigen, Day 55 of culturing, No Antigen Value 846", "result": 1511, "unit": "RLU"}, {"measurement": "Proliferation (luminescent ATP assay), Mean", "setting": "Donor 3 GMA T-Cell Lines; T-cell line 165-B5G, 10 μg/mL antigen, Day 55 of culturing, No Antigen Value 846", "result": 1645, "unit": "RLU"}, {"measurement": "Proliferation (luminescent ATP assay), Mean", "setting": "Donor 3 GMA T-Cell Lines; T-cell line 165-B5G, 10 μg/mL antigen, Day 81 of culturing, No Antigen Value 2432", "result": 4997, "unit": "RLU"}, {"measurement": "Proliferation (luminescent ATP assay), Mean", "setting": "Donor 3 GMA T-Cell Lines; T-cell line 165-B5G, 30 μg/mL antigen, Day 81 of culturing, No Antigen Value 2432", "result": 3637, "unit": "RLU"}, {"measurement": "Proliferation (luminescent ATP assay), Mean", "setting": "Donor 3 GMA T-Cell Lines; T-cell line 165-C5G, 1.25 μg/mL antigen, autologous B-LCL", "result": 435, "unit": "RLU"}, {"measurement": "Proliferation (luminescent ATP assay), Mean", "setting": "Donor 3 GMA T-Cell Lines; T-cell line 165-C5G, 2.5 μg/mL antigen, autologous B-LCL", "result": 465, "unit": "RLU"}, {"measurement": "Proliferation (luminescent ATP assay), Mean", "setting": "Donor 3 GMA T-Cell Lines; T-cell line 165-C5G, 5 μg/mL antigen, autologous B-LCL", "result": 504, "unit": "RLU"}, {"measurement": "Proliferation (luminescent ATP assay), Mean", "setting": "Donor 3 GMA T-Cell Lines; T-cell line 165-C5G, 10 μg/mL antigen, autologous B-LCL", "result": 423, "unit": "RLU"}, {"measurement": "Proliferation (luminescent ATP assay), Mean", "setting": "Donor 3 GMA T-Cell Lines; T-cell line 165-E7G, 1 μg/mL antigen, Day 81 of culturing, No Antigen Value 2145", "result": 4043, "unit": "RLU"}, {"measurement": "Proliferation (luminescent ATP assay), Mean", "setting": "Donor 3 GMA T-Cell Lines; T-cell line 165-E7G, 1.25 μg/mL antigen, autologous B-LCL, Day 55", "result": 2629, "unit": "RLU"}, {"measurement": "Proliferation (luminescent ATP assay), Mean", "setting": "Donor 3 GMA T-Cell Lines; T-cell line 165-E7G, 2.5 μg/mL antigen, autologous B-LCL, Day 55", "result": 2827, "unit": "RLU"}]}
